The text below walks through data of patent US20080242682A1, “Preventive or Therapeutic Agent for Sleep Disorder” (Takeda Pharmaceutical Company Limited, priority 2004, published 2008).

For test [1], the system named is Macaca fascicularis. In words: Experiment 1: sleep electroencephalogram (sleep latency and sleep duration in the night) in monkeys after oral administration. Conditions: female Macaca fascicularis, compound A 0.3 mg/kg, ritanserin 1 mg/kg; for SWS (slow-wave sleep) duration in breakdown of sleep duration / total sleep duration: 12 hours from lights-out to lights-on, drug-treated value; for sleep latency of LS / sleep latency of SWS: before lights-out, drug-treated value (vs vehicle, crossover). It is filed as in vivo. As to the method:
3 Female Macaca fascicularis were used for experiment. Drugs were administered according to crossover design. Test animals were operated to place an electrode to measure electroencephalogram, and were naturalized fully to test cage. The test animals were raised under light-dark cycle of 12 hour-light period and 12 hour-dark period (light period is from 6:00 to 18:00).
The dose of compound A was 0.3 mg/kg, and the dose of ritanserin was 1 mg/kg, and these were suspended in 0.5% methylcellulose solution to make dosage of 1 ml/kg. As control, 0.5% methylcellulose solution was used. Administration was conducted orally using transnasal catheter 5 to 10 minutes before extinction (17:50-17:55).
Measurement items were electroencephalogram, ocular movement and myogenic potential, and behavior was observed using infrared camera. Measurement was carried out for 12 hours from lights-out (18:00) to lights-on (6:00).
Data analysis was carried out for sleep latency and total sleep duration in the night.

In test [2] the test system is Cat. As to the kind of experiment: Experiment 2: effect of combined use of compound A and gabapentin (GBP) on sleep wakefulness of cat (sleep electroencephalogram). The note with it: oral capsule, 8 hours after administration, compound A 0.1 mg/kg, gabapentin 10 mg/kg. It counts as in vivo. As to the method: Used animals: 4 Siamese cats (purchased from Narc co.), 2 European shorthairs (purchased from Nisseiken co. Ltd.) and 1 mongrel cat (purchased from Narc co.) were used.
Under pentobarbital anesthesia, the following electrode and the like were implanted. An antibiotic was administered to prevent bacterial infection, and taming to cage for measuring electroencephalogram was started from 3 to 4 days after the operation. Measurement of electroencephalogram was carried out after 1 to 2 weeks of taming. • electrode for recording electroencephalogram in frontal lobe of cerebral cortex, frontal lobe and hippocampus • electrode for electrooculogram in orbit bone • stainless wire for recording electromyogram in dorsal cervical muscle […]
After being attached the electrodes for measurement from about 8:30 in the morning, the cats were placed in test box. Administration was conducted by 9:55 to 10:05 in the morning, and the sleep electroencephalogram for 8 hours after administration was measured.
Electroencephalogram data was obtained using Synafit 2500 of NEC Saneisha. […] In addition, the stage judged to be at slow-wave sleep was extracted, frequency analysis was carried out, and power spectrum during slow-wave sleep was calculated. […]

Consider `CCC(=O)NCC[C@@H]1CCc2ccc3c(c21)CCO3` [compound A, (S)—N-[2-(1,6,7,8-tetrahydro-2H-indeno[5,4-b]furan-8-yl)ethyl]propionamide], for which, in test [1], the “SWS (slow-wave sleep) duration in breakdown of sleep duration” value came to 135 min, the total sleep duration was 610 min, the “sleep latency of LS” value worked out at 13.3 min and the “sleep latency of SWS” value stood at 31.3 min. The “total slow-wave sleep duration” value in test [2] was 124.9 min.
As to `Cc1nc2sccn2c(=O)c1CCN1CCC(=C(c2ccc(F)cc2)c2ccc(F)cc2)CC1` [ritanserin, reference compound], in test [1], the “SWS (slow-wave sleep) duration in breakdown of sleep duration” value is 249 min, the total sleep duration is 573 min, the “sleep latency of LS” value stood at 12.0 min and the “sleep latency of SWS” value amounted to 39.3 min.
